In publication PMC10584170, “Machine learning-based phenotypic imaging to characterise the targetable biology of Plasmodium falciparum male gametocytes for the development of transmission-blocking antimalarials” (PLOS Pathogens, 2023):
Like-named read-outs stand apart in the source and are kept apart here.

Tests used:
[1] = system: P. falciparum male gametocytes; experiment: P. falciparum Dual Gamete Formation Assay (PfDGFA), male readout (exflagellation); format: cell-based, Plasmodium falciparum NF54; conditions: for Selectivity Ratio M: HepG2 Tox50 versus male IC50; for HitlevelM: number of replicates with >50% inhibition in the male readout
Method in brief: (§1)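 NF54 mature gametocytes (d14), cpd 24 h 37°C hypoxic gas; trigger: xanthurenic acid ookinete medium + Cy3 anti-Pfs25, 4°C 4 min → 28°C 4 min. Male: exflagellation centres, brightfield x6. Female: Pfs25+ gametes, fluorescence, +24 h 28°C dark.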

[2] = system: P. falciparum female gametocytes; experiment: P. falciparum Dual Gamete Formation Assay (PfDGFA), female readout (Pfs25-positive female gametes); format: cell-based, Plasmodium falciparum NF54; conditions: for Selectivity ratio F: HepG2 Tox50 versus female IC50; for HitlevelF: number of replicates with >50% inhibition in the female readout
Method in brief: as §1

HepG2 cells = experiment: HepG2 cytotoxicity counter-screen; conditions: for Tox50: cytotoxic activity against HepG2 cells
[3] = Plasmodium falciparum, 24 h, read-out: Male IC50
[4] = Plasmodium falciparum, read-out: % inhibition male (individual replicates) R1
[5] = Plasmodium falciparum, read-out: % inhibition male (individual replicates) R2
[6] = Plasmodium falciparum, read-out: % inhibition male (individual replicates) R3
[7] = Plasmodium falciparum, read-out: % inhibition male (individual replicates) R4
[8] = Plasmodium falciparum, read-out: Average inhibition male (%)
[9] = Plasmodium falciparum, 24 h, read-out: Female IC50
[10] = Plasmodium falciparum, read-out: % inhibition female (individual replicates) R1
[11] = Plasmodium falciparum, read-out: % inhibition female (individual replicates) R2
[12] = Plasmodium falciparum, read-out: % inhibition female (individual replicates) R3
[13] = Plasmodium falciparum, read-out: % inhibition female (individual replicates) R4
[14] = Plasmodium falciparum, read-out: Average inhibition female (%)
[15] = PfDGFA at 2µM, 24h preincubation with gametocytes, average of replicates
[16] = PfDGFA at 2µM, 24h preincubation with gametocytes, replicate R1
[17] = PfDGFA at 2µM, 24h preincubation with gametocytes, replicate R3
[18] = PfDGFA at 2µM, 24h preincubation with gametocytes, replicate R4
[19] = PfDGFA, 24 h incubation with gametocytes before induction, exflagellation readout, read-out: Male IC50
[20] = PfDGFA, 24 h incubation with gametocytes before induction, female gamete readout, read-out: Female IC50
[21] = 2µM, 24h preincubation with gametocytes, average of replicates
[22] = 2µM, 24h preincubation with gametocytes, replicate R1
[23] = 2µM, 24h preincubation with gametocytes, replicate R3
[24] = 2µM, 24h preincubation with gametocytes, replicate R4
[25] = Plasmodium falciparum, PfDGFA, 24 h incubation with gametocytes before induction, exflagellation readout, read-out: Male IC50
[26] = Plasmodium falciparum, PfDGFA, 24 h incubation with gametocytes before induction, female gamete readout, read-out: Female IC50
[27] = Plasmodium falciparum, 2µM, 24h preincubation with gametocytes, average of replicates, read-out: Average inhibition male (%)
[28] = Plasmodium falciparum, 2µM, 24h preincubation with gametocytes, replicate R1, read-out: % inhibition male (individual replicates) R1
[29] = Plasmodium falciparum, 2µM, 24h preincubation with gametocytes, replicate R2, read-out: % inhibition male (individual replicates) R2
[30] = Plasmodium falciparum, 2µM, 24h preincubation with gametocytes, replicate R4, read-out: % inhibition male (individual replicates) R4
[31] = Plasmodium falciparum, 2µM, 24h preincubation with gametocytes, average of replicates, read-out: Average inhibition female (%)
[32] = Plasmodium falciparum, 2µM, 24h preincubation with gametocytes, replicate R1, read-out: % inhibition female (individual replicates) R1
[33] = Plasmodium falciparum, 2µM, 24h preincubation with gametocytes, replicate R2, read-out: % inhibition female (individual replicates) R2
[34] = Plasmodium falciparum, 2µM, 24h preincubation with gametocytes, replicate R3, read-out: % inhibition female (individual replicates) R3
[35] = Plasmodium falciparum, 2µM, 24h preincubation with gametocytes, replicate R4, read-out: % inhibition female (individual replicates) R4

| SMILES | Selectivity Ratio M [1] | HitlevelM ([1]; 2µM) | Selectivity ratio F [2] | HitlevelF ([2]; 2µM) | Tox50 (HepG2 cells) | IC50 [1, 19] | IC50 [2, 20] | Average inhibition male (%) [1, 21] | % inhibition male (individual replicates) R1 [1, 22] | % inhibition male (individual replicates) R3 [1, 23] | % inhibition male (individual replicates) R4 [1, 24] | Average inhibition female (%) [2, 21] | % inhibition female (individual replicates) R1 [2, 22] | % inhibition female (individual replicates) R3 [2, 23] | % inhibition female (individual replicates) R4 [2, 24] | other results |
| --- | --- | --- | --- | --- | --- | --- | --- | --- | --- | --- | --- | --- | --- | --- | --- | --- |
| Br.CC[C@H]1CN2CCc3cc(OC)c(OC)cc3[C@@H]2C[C@@H]1C[C@H]1NCCc2c1cc(OC)c(O)c2I [TCMDC-131829] | 7.59 | 4 | 21.58 | 4 | 6.35 µM |  |  |  |  |  |  |  |  |  |  | IC50 [1, 3]: 840 nM; inhibition at 2 µM [1, 4]: 84.6%; inhibition at 2 µM [1, 5]: 83.8%; inhibition at 2 µM [1, 6]: 88.6%; inhibition at 2 µM [1, 7]: 95.7%; inhibition at 2 µM [1, 8]: 88.2%; IC50 [2, 9]: 290 nM; inhibition at 2 µM [2, 10]: 83.8%; inhibition at 2 µM [2, 11]: 92.3%; inhibition at 2 µM [2, 12]: 106%; inhibition at 2 µM [2, 13]: 88.5%; inhibition at 2 µM [2, 14]: 92.8% |
| COc1cc2nc(N3CCC(CNC(=O)c4ccc(-c5ccc(Cl)cc5)cc4)CC3)nc(N)c2cc1OC [TCMDC-138718] | 3.57 | 4 | 3.36 | 1 | 6.93 µM | 1940 nM | 2060 nM |  |  |  |  |  |  |  |  | Average inhibition male (%) [1, 15]: 79.1%; % inhibition male (individual replicates) R1 [1, 16]: 85.4%; % inhibition male (individual replicates) R3 [1, 17]: 66.5%; % inhibition male (individual replicates) R4 [1, 18]: 84.2%; Average inhibition female (%) [2, 15]: 49.0%; % inhibition female (individual replicates) R1 [2, 16]: 33.3%; % inhibition female (individual replicates) R3 [2, 17]: 38.5%; % inhibition female (individual replicates) R4 [2, 18]: 37.2% |
| COc1ccc(CCNCCCCNCCc2ccc(OC)c3ccccc23)c2ccccc12.CS(=O)(=O)O [TCMDC-137961] | 3.28 |  | 1.85 |  | 3.73 µM | 1140 nM | 2020 nM | 90.0% | 98.7% | 95.1% | 92.4% | 83.6% | 91.7% | 93.4% | 91.7% |  |
| COc1ccc(Nc2ncc(Cl)c(Nc3cccnc3C(N)=O)n2)cc1N1CCN(C)CC1.Cl [TCMDC-134163] | 7.51 | 4 | 0.3 | 0 | 2.98 µM |  |  |  |  |  |  |  |  |  |  | inhibition at 2 µM ([1]; Plasmodium falciparum, PfDGFA at 2µM, 24h preincubation with gametocytes, average of replicates, read-out: Average inhibition male (%)): 79.9%; inhibition at 2 µM ([1]; Plasmodium falciparum, PfDGFA at 2µM, 24h preincubation with gametocytes, replicate R1, read-out: % inhibition male (individual replicates) R1): 77.1%; inhibition at 2 µM ([1]; Plasmodium falciparum, PfDGFA at 2µM, 24h preincubation with gametocytes, replicate R2, read-out: % inhibition male (individual replicates) R2): 88.9%; inhibition at 2 µM ([1]; Plasmodium falciparum, PfDGFA at 2µM, 24h preincubation with gametocytes, replicate R3, read-out: % inhibition male (individual replicates) R3): 73.4%; inhibition at 2 µM ([1]; Plasmodium falciparum, PfDGFA at 2µM, 24h preincubation with gametocytes, replicate R4, read-out: % inhibition male (individual replicates) R4): 80.2%; IC50 [1, 25]: 400 nM; inhibition at 2 µM ([2]; Plasmodium falciparum, PfDGFA at 2µM, 24h preincubation with gametocytes, average of replicates, read-out: Average inhibition female (%)): -4.7%; inhibition at 2 µM ([2]; Plasmodium falciparum, PfDGFA at 2µM, 24h preincubation with gametocytes, replicate R1, read-out: % inhibition female (individual replicates) R1): 1.7%; inhibition at 2 µM ([2]; Plasmodium falciparum, PfDGFA at 2µM, 24h preincubation with gametocytes, replicate R2, read-out: % inhibition female (individual replicates) R2): -23.4%; inhibition at 2 µM ([2]; Plasmodium falciparum, PfDGFA at 2µM, 24h preincubation with gametocytes, replicate R3, read-out: % inhibition female (individual replicates) R3): -4.2%; inhibition at 2 µM ([2]; Plasmodium falciparum, PfDGFA at 2µM, 24h preincubation with gametocytes, replicate R4, read-out: % inhibition female (individual replicates) R4): 7%; IC50 [2, 26]: > 10000 nM |
| Cn1c(-c2ccccc2)cc2c3c(N)nc(N)nc3ccc21 [TCMDC-137985] | 2.45 | 4 | 1.39 | 0 | 4.6 µM | 1880 nM | 3300 nM |  |  |  |  |  |  |  |  | Average inhibition male (%) [1, 15]: 67.4%; % inhibition male (individual replicates) R1 [1, 16]: 74.3%; % inhibition male (individual replicates) R3 [1, 17]: 56.6%; % inhibition male (individual replicates) R4 [1, 18]: 64.0%; Average inhibition female (%) [2, 15]: 1.3%; % inhibition female (individual replicates) R1 [2, 16]: 15.4%; % inhibition female (individual replicates) R3 [2, 17]: -11.7%; % inhibition female (individual replicates) R4 [2, 18]: 3.6% |
| CC(CO)(CO)NCc1cc2c3ccccc3c(CNC(C)(CO)CO)cc2c2ccccc12.CS(=O)(=O)O [TCMDC-137752] | 14.99 |  | 2.72 |  | 13.04 µM |  |  |  |  |  |  |  |  |  |  | IC50 [1, 3]: 870 nM; inhibition at 2 µM [1, 4]: 93.1%; inhibition at 2 µM [1, 5]: 93.5%; inhibition at 2 µM [1, 6]: 85.5%; inhibition at 2 µM [1, 7]: 90.9%; inhibition at 2 µM [1, 8]: 90.8%; IC50 [2, 9]: 4790 nM; inhibition at 2 µM [2, 10]: 37.9%; inhibition at 2 µM [2, 11]: 48.4%; inhibition at 2 µM [2, 12]: 18.2%; inhibition at 2 µM [2, 13]: 48.2%; inhibition at 2 µM [2, 14]: 38.2% |
| Nc1nc(N)c2cc(NC(=O)c3ccc(Cl)c(Cl)c3)ccc2n1 [TCMDC-141982] | 2.06 |  | 1.06 |  | 2.38 µM | 1150 nM | 2250 nM | 98.2% | 97.3% | 98.4% | 100.2% | 81.8% | 88.2% | 90.4% | 80.2% |  |
| Oc1cccc(CNCCCN(Cc2ccccc2)c2ccccc2)c1 [TC30] |  |  |  |  |  |  |  |  |  |  |  |  |  |  |  | Cytotox ratio Pf Male [1]: 13.1; IC50 ([1]; this study, read-out: Pf DGFA IC50 MALE): 1060 nM; Cytotox ratio Pf Female [2]: 1.8; IC50 ([2]; this study, read-out: Pf DGFA IC50 FEM): 7740 nM; Mean TOX (HepG2 cells; mean of the HepG2 TOX50 values): 13.84 µM |
| CCCOc1ccc(CCNCCCCNCCc2ccc(OCCC)c3ccccc23)c2ccccc12.CS(=O)(=O)O [TCMDC-137952] | 3.16 |  | 2.17 |  | 2.96 µM | 940 nM | 1370 nM | 93.9% | 96.8% | 100.0% | 100.7% | 89.4% | 87.3% | 99.5% | 93.9% |  |
| CS(=O)(=O)O.CSc1ccc2ccccc2c1CCNCCCCNCCc1c(SC)ccc2ccccc12 [TCMDC-137763] | 2.67 |  | 1.79 |  | 3.73 µM | 1400 nM | 2080 nM | 90.7% | 94.6% | 73.0% | 98.9% | 55.5% | 47.6% | 28.5% | 71.9% |  |
| Oc1cccc(CNCCCN(Cc2ccccc2)c2ccccc2)c1 [TCMDC-137875] | 13 |  | 1.79 |  | 13.84 µM |  |  |  |  |  |  |  |  |  |  | inhibition at 2 µM [1, 27]: 97.7%; inhibition at 2 µM [1, 28]: 96.8%; inhibition at 2 µM [1, 29]: 93.7%; inhibition at 2 µM [1, 30]: 103%; IC50 [1, 25]: 1060 nM; inhibition at 2 µM [2, 31]: 33.5%; inhibition at 2 µM [2, 32]: 43.5%; inhibition at 2 µM [2, 33]: 32%; inhibition at 2 µM [2, 34]: 28.3%; inhibition at 2 µM [2, 35]: 30.2%; IC50 [2, 26]: 7740 nM |
| Cc1cc(Nc2ccncc2)n2nc(C)c(-c3ccc(Cl)cc3)c2n1 [TCMDC-124478] | 68.63 |  | 6.55 |  | 65.53 µM |  |  |  |  |  |  |  |  |  |  | inhibition at 2 µM [1, 27]: 95.5%; inhibition at 2 µM [1, 28]: 96.8%; inhibition at 2 µM [1, 29]: 90.6%; inhibition at 2 µM ([1]; Plasmodium falciparum, 2µM, 24h preincubation with gametocytes, replicate R3, read-out: % inhibition male (individual replicates) R3): 96.8%; inhibition at 2 µM [1, 30]: 98%; IC50 [1, 25]: 950 nM; inhibition at 2 µM [2, 31]: 2.4%; inhibition at 2 µM [2, 32]: -1.3%; inhibition at 2 µM [2, 33]: -8.5%; inhibition at 2 µM [2, 34]: 24.2%; inhibition at 2 µM [2, 35]: -4.9%; IC50 [2, 26]: > 10000 nM |
